These results are taken from US5366983A, “Use of quaternary ammonium compounds to remove salmonella contamination from meat products” (The Board of Trustees of The University of Arkansas, priority 1992, dated 1994).

Values joined by “and” are separate entries in the source; they are usually repeats but may differ in a detail not shown here. Equal entries are not always repeated. Where two headings read alike, the source gives them in different places.

Series [1] has as its system Salmonella typhimurium ATCC 14028 attached to human buccal epithelial cells. Format: cell-based. The settings on record: Table A-1.
In series [2] the test system is Salmonella typhimurium ATCC 14028. Kind of series: Effect on viability of Salmonella in suspension (Tables D-1 to D-3). The settings on record: for bacterial viability: Table D-1. Format: cell-based. The method in brief:
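Bactericidal activity against Salmonella measured in suspension; EC50 derived by nonlinear regression of kill versus molar concentration. Na2-EDTA and EGTA dissolved and diluted in 0.04 M PPB; EGTA heated 15 minutes at 80° C., adjusted to pH 7.0 with NaOH, filter-sterilized.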

For series [3] the test system is unchanged. Kind of series: Minimum growth inhibitory concentration, macrodilution. In kind it is cell-based. The settings on record: Mueler Hinton broth, macrodilution (NCCLS). The method, then:
Minimum growth inhibitory concentrations (MICs) of quaternary ammonium compounds and Na2 -EDTA for Salmonella were determined using Mueler Hinton broth (BBL Microbiology system, Cockeysville, Md.) and by the macrodilution method established by the National Committee for Clinical Laboratory Standards (NCCLS). Escherichia coli ATCC 25922 and Staphylococcus aureus ATCC 29213 were included in each assay as reference strains.

Series [4] relates to Salmonella typhimurium ATCC 14028 attached to human buccal epithelial cells. Kind of series: microbe, parasite or virus in culture. Format: cell-based. The settings on record: for adherence, mean value of attached bacteria: Table A-3; for EC50: Salmonella enterica, Epithelial cell, read-out: EC50 (±SD), detachment. The method, then:
Additional studies on the detachment of Salmonella typhimurium from human buccal epithelial cells were conducted.
S. typhimurium ATCC 14028 was grown in nutrient broth (BBL Microbiology system, Cockeysville, Md.) for 16 hours at 37° C. The cells were centrifuged and washed twice with 0.008 M phosphate buffered saline (PBS, at pH 7.2) at 4500 rpm for 10 minutes. The last suspension was diluted in PBS to obtain a cell concentration 0.5 to 1×10^9 cells/ml using spectrophotometric measurement. Human epithelial cells were obtained by swabbing the buccal surface of a healthy, nonsmoking donor. […] The number of living cells was estimated and the suspension was diluted to 0.5 to 1×10^5 cells/ml.
The suspension of the human buccal cells was mixed with an equal volume of the bacterial suspension (3.0 ml), or PBS (0.8 ml) in 10 ml Erlenmeyer flasks. Contact was allowed for 1.5 hours at 35° C. under agitation. After incubation, 1.0 ml of each suspension was transferred into an Eppendorff vial, centrifuged at 3000 rpm for 10 minutes, and washed with PBS. The cells were treated with 1.0 ml PBS or 1.0 ml of the test chemical solution. Treatment was performed by suspending, gently vortexing, and centrifuging at 1500 rpm for 10 minutes. After the treatment, the cells were washed and placed on microscopic slides for examination.
EC50 represents the inverse measurement of the potency of a compound. EC50 values were determined by a nonlinear regression of the detachment effect versus the cationic surfactant concentration data from Table A-3.

Series [5] concerns Salmonella typhimurium on chicken skin. Briefly: Effect of surfactants on Salmonella attached to chicken skin, drumsticks (Tables F1-F4). The settings on record: 25° C.
Series [6] concerns Escherichia coli ATCC 25922. The settings on record: E. coli; cited from earlier work.
Series [7] relates to Staphylococcus aureus ATCC 29213. The settings on record: S. aureus; cited from earlier work.

As a reminder, the EC50 is the concentration at which the effect is half-maximal. One may read the MIC as the least concentration at which growth counts as inhibited. For the compound `CCCCCCCCCCCCCCCC[N+](C)(C)C.[Br-]` [HTMAB, hexadecyltrimethylammonium bromide], the “adherence, mean value of attached bacteria” value (“adherence, mean value” below) in series [1] (5 ug/ml) was 49 ± 21; in series [1] (50 ug/ml), 48 ± 20; in series [4] (100 ug/ml) it was 82 ± 35; in series [4] (175 ug/ml), 57 ± 33; in series [4] (250 ug/ml) it was 33 ± 19. Moreover, in series [1] (500 ug/ml), the “cytotoxicity to buccal epithelial cells” value was “cytotoxic”. The bacterial viability in series [2] (10 ug/ml) is 1.06 ± 0.08 × 10^9 CFU/ml and 1.67 ± 0.12 × 10^9 CFU/ml; in series [2] (20 ug/ml), 3.23 ± 0.38 × 10^8 CFU/ml and 6.35 ± 1.03 × 10^8 CFU/ml. For the same compound, the EC50 in series [2] (Salmonella enterica, read-out: EC50 (±SD), effect on viability in suspension) was determined as 48 ± 0.03 µM; in series [4], 333 ± 14 µM. Also, the MIC in series [3] stood at 60 µg/mL; in series [3] (Salmonella enterica), 64 µg/mL. Besides, the “Enrichment, chicken legs out of ten” value is 5/10 in series [5] (0.1%), 0/10 in series [5] (1.0%) and 5/10 in series [5] (.01%). The entries for the “Rinse H2O” value in series [5] (0.1%), in series [5] (1.0%) and in series [5] (.01%) were “+ (1-10)”, 0 CFU/ml and “+ (1-10)”, respectively. The “Surfactant Solution” value in series [5] (0.1%), in series [5] (1.0%) and in series [5] (.01%) was 0 CFU/ml throughout. Besides, the “Swabs, chicken legs producing the notated number of colonies” value was 6/10 in series [5] (0.1%), 3/10 in series [5] (1.0%) and 9/10 in series [5] (.01%). Besides, the “Swabs, colonies” value in series [5] (0.1%), in series [5] (1.0%) and in series [5] (.01%) was “+ (1-10)” in each case. The “Wash H2O, colonies” value in series [5] (0.1%) is 0 CFU/ml; in series [5] (1.0%) it was 0 CFU/ml; in series [5] (.01%) it was “++ (11-100)”. In addition, the “Wash H2O, chicken legs producing the notated number of colonies” value in series [5] (.01%) is 10/10.
For `CCCCCCCCCCCC[n+]1ccccc1` [DPC, dodecylpyridinium chloride], the “adherence, mean value” value is listed as 70 ± 35 in series [1] (10 ug/ml); 55 ± 23 in series [1] (25 ug/ml); 46 ± 28 in series [1] (50 ug/ml); 34 ± 20 in series [1] (75 ug/ml); 34 ± 18 in series [1] (100 ug/ml); 14 ± 10 in series [1] (500 ug/ml). Further, the “adherence, mean value” value in series [4] (100 ug/ml) is on record as 129 ± 87; in series [4] (150 ug/ml), 141 ± 66; in series [4] (175 ug/ml), 110 ± 73; in series [4] (250 ug/ml) it was 62 ± 50; in series [4] (300 ug/ml), 61 ± 34; in series [4] (450 ug/ml), 54 ± 23. For the same compound, the bacterial viability in series [2] (10 ug/ml) was 1.39 ± 0.34 × 10^9 CFU/ml; in series [2] (100 ug/ml), 9.8 ± 2.17 × 10^8 CFU/ml and 8.85 ± 0.3 × 10^8 CFU/ml; in series [2] (200 ug/ml), < 10^5 CFU/ml; in series [2] (400 ug/ml) it was 0 CFU/ml; in series [2] (1000 ug/ml), 0 CFU/ml. In addition, the MIC in series [3] (Salmonella enterica, read-out: MIC) was 80 µg/mL. In series [4], the EC50 was 716 ± 63 µM. In addition, the “Enrichment, chicken legs out of ten” value in series [5] (0.1%) is reported as 8/10; in series [5] (1.0%), 0/10; in series [5] (.01%), 10/10. Further, the results for the “Rinse H2O” value in series [5] (0.1%), in series [5] (1.0%) and in series [5] (.01%) were 0 CFU/ml, 0 CFU/ml and “+ (1-10)”, respectively. For the same compound, the “Surfactant Solution” value in series [5] (0.1%), in series [5] (1.0%) and in series [5] (.01%) was 0 CFU/ml each time. Also, the figures for the “Swabs, chicken legs producing the notated number of colonies” value in series [5] (0.1%), in series [5] (1.0%) and in series [5] (.01%) were 0/10, 0/10 and 6/10, respectively. Further, the “Wash H2O, chicken legs producing the notated number of colonies” value in series [5] (0.1%) is recorded as 7/10; in series [5] (.01%), 10/10. The “Wash H2O, colonies” value in series [5] (0.1%) is recorded as “++ (11-100)”; in series [5] (1.0%) it was 0 CFU/ml; in series [5] (.01%), “++ (11-100)”. In addition, the “Swabs, colonies” value in series [5] (.01%) was “+ (1-10)”.
`CC1(C)S[C@@H]2[C@H](NC(=O)[C@H](N)c3ccccc3)C(=O)N2[C@H]1C(=O)O` [ampicillin]: the “acceptable MIC by NCCLS” value in series [6] was 2 to 8 µg/mL; in series [7], 0.5 to 2 µg/mL.
